What was measured:
USP16 = test: qPCR of USP16 expression; type: cell-based, human; details: for downregulation of USP16 (Ctrl vs shRNA): primary T cells, day 15
Text: A new set of shRNAs were cloned into the pSIH backbone, where the shRNA expression is driven by the H1 promoter. The vector was also engineered to co-express GFP and Puromycin resistance through a T2A sequence. The new shRNA sequences were: shUSP16 #1 5′-[…]-3′ (SEQ ID NO: 8) and shUSP16 #2 5′-[…]-3′ (SEQ ID NO: 9). Primary T cells were activated as described (Example 3), transduced with a lentivirus encoding either a shUSP16 #1, shUSP16 #2 or a scrambled shRNA (Control) and cells were selected with puromycin at day 6. Between 1 and 1.25×10^6 cells were plated post-puromycin selection with a purity higher than 90% and counted every 2-4 days by Trypan Blue exclusion using Vi-CELL XR cell counter (Beckman Coulter). qPCR was performed to verify downregulation of USP16 expression (FIG. 14A) and the expression of the senescent marker CDKN1A (FIG. 14B) at day 15. Proliferation was measured as fold increased compared to shControl at day 15 post-activation. The experiment was repeated using primary T cells obtained from buffy coats of 3 different healthy donors.
(§1) Primary T cells were activated as described (Example 3). At Day 6 post-activation, dynabeads were removed and T cells electroporated using the Neon Transfection System (ThermoFisher) with a 2.5:1 ratio sgRNA:Cas9. The experiment was performed following the protocol optimized for primary T cell by Synthego (CRISPR Editing Human Primary CD4+ T cells with RNPs using Neon Electroporation Protocol, 2018 version). The sgRNA used are the following: gUSP16 #1 5′-[…]-3′ (SEQ ID NO: 10) and gSynthego that comprises 3 different sgRNAs (gRNA-A: 5′-[…] 3′ (SEQ ID NO: 11); gRNA-B: 5′-[…]-3′ (SEQ ID NO: 12); gRNA-C: 5′-[…]-3′ (SEQ ID NO: 13)). Control T cells, identified as Mock, were electroporated but no Cas9:sgRNA mixture was added. […] At day 15 post-activation, cells were stained for CD4-PE, CD8-BV510, CD62L-Allophycocyanin and CD45RA-APC-Cy7 (Biolegend). Stem cell memory T cells (Tscm) were identified as Sytox^−GFP^+CD45RA^+CD62L^+ and graphed as ratio compared to mock cells (FIG. 22). The experiment was repeated using primary T cells obtained from buffy coats of 2 different healthy donors.
Primary T cells were activated as described (Example 3), transduced with a lentivirus encoding for either a CD19.CAR or a GD2.CAR co-expressing shUSP16 #1, shUSP16 #2 or a scrambled shRNA (Control). Cells were cultured in IL-2 and sorted between days 6-13 for EGFRt. Cells were plated post-sorting with a purity higher than 85% and counted every 2-4 days by Trypan Blue exclusion using Vi-CELL XR cell counter. Fifteen days post-activation both CD19.CAR and GD2.CAR T cells were collected, and qPCR was performed to verify downregulation of USP16 expression (FIG. 24) (fold change GD2.CAR (n=3): Control vs shUSP #1: 0.35, p<0.0001, and Control vs shUSP16 #2: 0.2452, p<0.0001, fold change CD19.CAR (n=4): Control vs shUSP #1: 0.2891, p<0.0001, and Control vs shUSP16 #2: 0.2566, p<0.0001). Proliferation was measured as fold increase compared to control cells at day 15 (FIG. 25).

primary T cells = test: Stem cell memory T cell phenotype by flow cytometry (CD45RA+CD62L+); type: cell-based, human; details: for stem cell frequency (Tscm phenotype ratio), fold increase over Control: day 20, gated on CD8
Procedure: Primary T cells were activated as described (Example 3), transduced with a lentivirus encoding for either a shUSP16 or a non-targeting shRNA (Ctrl) and sorted for GFP on day 8. Cells were cultured in the presence of IL-2 and their phenotype was analyzed at day 20. Cells were stained for CD4-PerCP-5.5 or CD8-BV510, CD62L-Allophycocyanin, CD45RA-BV510 or PE-Cy7 (Biolegend). Naïve or stem cell memory T cells (TNa/SCM) were identified as Sytox^− GFP^+CD45RA^+CD62L^+. Number of TNa/SCM was calculated as (#CD4 or CD8 T cells*TNa/SCMpercentage)/100. Flow cytometry was performed on the MACQuant (Myltenyi Biotec) and the data analyzed with FlowJo (shCtrl vs shUSP CD4: 0.4978 vs 0.7915, p=0.0673 and CD8: 2.469 vs 4.984, p=0.00392, n=7). Downregulation of USP16 expression increases the number of CD4+CD45RA+CD62L+(FIG. 11A) and CD8+CD45RA+CD62L+(FIG. 11B) cells in culture by 1.7 (p=0.0205) and 1.9 (p=0.0097) times, respectively.
Primary T cells were activated as described (Example 3), transduced with a lentivirus encoding either a shUSP16 #1, shUSP16 #2 or a non-targeting shRNA (shCtrl) and cells were selected with puromycin at day 6. At day 15 cell were collected and analyzed by qPCR for the expression of LEF1 (FIG. 16A) and TCF7 (FIG. 16B), downstream regulators of the WNT pathway. At day 20, cells were stained for CD4-PE, CD8-BV510, CD62L-Allophycocyanin and CD45RA-APC-Cy7 (Biolegend). Stem cell memory T cells (Tscm) were identified as Sytox^− GFP^+CD45RA^+CD62L^+, central memory T cells (Tcm) as Sytox^−GFP^+CD45RA^−CD62L^+, effector memory T cells (Tem) as Sytox^−GFP^+CD45RA^−CD62L^−, and terminal effector T cell (Teff) as Sytox^−GFP^+CD45RA^+CD62L^− (FIG. 17A). Cells were gated on the CD8 population. The specific increase of Tscm was shown as phenotype ratio (FIG. 17B).
as §1
Primary T cells were activated as described (Example 3), transduced with a lentivirus encoding for either a CD19.CAR or a GD2.CAR co-expressing shUSP16 #1, shUSP16 #2 or a scrambled shRNA (Control). At day 15, GD2.CAR and CD19.CAR T cells were stained for EGFR-AF488 (R&D), CD3-PE, CD8-BV510, CD62L-Allophycocyanin and CD45RA-APC-Cy7 (Biolegend). Stem cell memory T cells (Tscm) were identified as FITC^+CD45RA^+CD62L^+, central memory T cells (Tcm) as FITC^+CD45RA^−CD62L^+, effector memory T cells (Tem) as FITC^+CD45RA^−CD62L^−, and terminal effector T cell (Teff) as FITC^+CD45RA^+CD62L^−. Cells were gated on the CD8 population. The specific increase of Tscm was shown as phenotype ratio (FIGS. 28A and 28B).

Substance	USP16 expression, fold change vs Control (USP16; CD19.CAR T cells, day 15, n=4)	USP16 expression, fold change vs Control (USP16; GD2.CAR T cells, day 15, n=3)	downregulation of USP16 (Ctrl vs shRNA) (USP16) [%]	stem cell frequency (Tscm), fold change vs Control (primary T cells; CD19.CAR, day 15, n=5)	stem cell frequency (Tscm), fold change vs Control (primary T cells; GD2.CAR, day 15, n=4)	stem cell frequency (Tscm phenotype ratio), fold increase over Control (primary T cells)
shUSP16 #2: shRNA targeting USP16, 5′-TATATCAGTTCACCCGTAAT-3′ (SEQ ID NO: 9), pSIH backbone or co-expressed in CAR plasmid	0.2566	0.2452	53	2.273	1.383	2.63
shUSP16 #1: shRNA targeting USP16, 5′-GACTGTAAGACTGACAATAAA-3′ (SEQ ID NO: 8), pSIH backbone or co-expressed in CAR plasmid	0.2891	0.35	56	1.994	1.347	2.022
